Test results published in patent US20140047572A1, “THROMBOPOIETIN MIMETICS FOR THE TREATMENT OF RADIATION OR CHEMICAL INDUCED BONE MARROW INJURY” (priority 2012, published 2014).

What was measured:
[1] = tested on: Mpl^hmMPL knock-in mice; assay: Survival of Mpl^hmMPL knock-in mice after lethal total body irradiation; type: in vivo, mouse; conditions: 8 Gy TBI, eltrombopag 50 mg/kg gavage daily for 15 days from 24 h after TBI, monitored 30 days
Procedure: FIG. 3 is a Kaplan-Meier survival curve showing survival of wildtype and Mpl^hmMPL knock-in mice after exposure to a non-therapeutic dose of radiation. Male Mpl^hmMPL knock-in mice received total body irradiation (TBI) of 8 Gy. Twenty-four hours after TBI, mice were gavaged daily with eltrombopag (50 mg/kg) for 15 days. Survival of mice was monitored twice daily for 30 days. Experiments were carried out with 8 homozygous Mpl^hmMPL knock-in mice, 10 heterozygous Mpl^hmMPL knock-in mice, and 10 wild type mice.
All mice received 8 Gy total body irradiation and were treated with eltrombopag 24 hours after irradiation. […] It is believed that eltrombopag facilitates bone marrow recovery after radiation injury to the hematopoietic system.

[2] = tested on: Mpl^hExon10 KI mice; assay: Eltrombopag treatment of non-irradiated Mpl^hExon10 KI mice: platelet and bone marrow cell populations; type: in vivo, mouse; conditions: 25 mg/kg/day gavage 15 days, vs vehicle
Procedure: Mpl^hExon10 KI mice (9 to 13 weeks old, male and female) were fed with 25 mg eltrombopag (ePag)/kg/day or vehicle by gavage for 15 days. Eltrombopag is a non-peptide mimetic of the TPO receptor. Mice were sacrificed on the 16th day for cell analysis.
To examine platelet levels, whole blood was obtained by heart puncture and CBC was done by Heska HemaTrue Hematology analyzer. Whole blood was also stained by anti CD41 and anti CD61 antibodies. The ratio of platelets to RBCs was measured by flow cytometry after whole blood was stained with anti-CD41 and anti-CD61 antibodies. The count of platelets was calculated by multiplying the ratio with the count of RBCs obtained by Heska HemaTrue Hematology Analyzer. The data is presented as mean±standard error of the mean.
To examine bone marrow cell populations, mice were sacrificed on day 16 and bone marrow cells were flushed out of the femur and tibia. RBCs were lysed by ACK buffer. The bone marrow mononuclear cells were stained with anti-CD41-PE and anti-CD42-APC. DAPI was added before flow cytometric analysis to gate away dead cells. The number of mice in each genotype is 5-7. All results are shown as the mean±standard error of the mean.
In a separate experiment, bone marrow mononuclear cells were stained with anti-lineages-PE (Gr-1, Mac-1, B220, Ter119, CD4 and CD8), anti-Sca-1 FITC, and anti-c-kit-APC. DAPI-pacific blue was added before flow cytometric analysis to eliminate dead cells. To analyze KSL (linage^−, c-kit^+, sca^+) population, live cells (DAPI-) are first gated, followed by gating the linage^− population and selecting c-kit^+/sca-1^+ population within the linage^− population.

[3] = tested on: human c-mpl TM (exon 10) KI mice; assay: Survival of irradiated human c-mpl TM (exon 10) KI mice; type: in vivo, mouse; conditions: 7.75 Gy TBI; for survival after TBI: male mice, 12.5, 25 or 50 mg/kg daily gavage 15 days from 24 h after irradiation, vs vehicle
Procedure: (§1) Male Mpl^hExon10KI (human c-mpl TM knock-in mice) received 7.75 Gy TBI. Twenty-four hours after irradiation, mice were gavaged with either vehicle (0 mg/kg of eltrombopag) or one of the three doses of eltrombopag (12.5 mg/kg, 25 m g/kg, vs. 50 mg/kg daily for 15 days (n=8-10) for each experimental group.
as §1, with “A pilot radiation study of was performed using human” for “Male Mpl^hExon10KI (human”, “KI mice before completion of backcrossing to >95% C57B1. Male human c-mpl TM (exon 10) KI mice” for “knock-in mice)”

[4] = tested on: Human bone marrow mononuclear cells; assay: Megakaryocyte and CD41+CD34- cell differentiation in ex vivo human bone marrow culture in 3D bioreactor; type: cell-based; conditions: eltrombopag 8 μg/mL + IL11 vs TPO + IL11; non-irradiated control and irradiated cultures; 14 days
Procedure: FIGS. 12A-D illustrate the effects of IL-11 only (middle/red bars) versus TPO+IL11 (left/blue bars) versus eltrombopag (8 μg/mL)+IL11 (right/green bars) on promoting megakaryocyte or CD41+CD34− cell differentiation in control and irradiated ex vivo human 3D bone marrow mononuclear cells. Cells were treated with TPO and IL11 (5 ng/mL each) for 6-7 days to induce megakaryocyte differentiation. Culture media was replaced with cultures containing IL-11 only, TPO+IL11, or eltrombopag+IL11 for the groups of control cultures (FIGS. 12A, 12C) and the group of irradiated cultures (FIGS. 12B, 12D). […]
Human bone marrow mononuclear cells were inoculated into the 6-well bioreactor as described above (3.5×10^6 cells in 0.6 mL). […] Cultures were screened weekly for cell viability (Trypan blue exclusion test) and for megakaryocytes production expressed as number of megakaryocytes per 1000 bone marrow cells on Wright stained cytospin slides.
Flow cytometry analysis of CD41+CD34− cells (marker for precursor/progenitor of thrombopoiesis) was also performed for megakaryocytes and progenitors as an additional experimental end-point. […] Cells were analyzed on FACS—Calibur Flow Cytometer (Becton-Dickinson, Rockville, Md.). CD41+CD34− cell population was gated as a subpopulation of all living cells analyzed. […]

[5] = tested on: TM KI homozygote mutant mice; assay: Blood cell recovery in irradiated human c-Mpl TM (exon 10) KI mice; type: in vivo, mouse; conditions: 6.5 Gy TBI, 25 mg/kg/day oral gavage from 24 h post IR, vs vehicle
Procedure: TM KI homozygote mutant mice (11 weeks old, male and female) were treated with 6.5 Gy TBI and at 24 hr post IR fed with 25 mg ePag/kg/day or vehicle by oral gavage daily for 28 days or till sacrificed. Mice were sacrificed on the day specified. Whole blood was obtained by heart puncture and CBC was done by Heska HemaTrue Hematology analyzer. Whole blood was also stained by anti CD41 and anti CD61 antibodies. BM was extracted and stained with mCD41 and mCD42d for flow cytometry analysis of […] cells (markers for precursor and progenitors for thrombopoiesis).
The ratio of platelets to RBCs was measured by flow cytometry after whole blood was stained with anti-CD41 and anti-CD61 antibodies. The count of platelets was calculated by multiplying the ratio with the count of RBCs obtained by Heska HemaTrue Hematology Analyzer. Week 0 is normal mice without IR and gavage.

[6] = tested on: TPO receptors; conditions: depends on His 499 in the transmembrane portion; cited from earlier work

CC1=NN(c2ccc(C)c(C)c2)C(=O)/C1=N\Nc1cccc(-c2cccc(C(=O)O)c2)c1O [eltrombopag, (Z)-3′-(2-(1-(3,4-dimethylphenyl)-3-methyl-5-oxo-1H-pyrazol-4(5H)-ylidene)hydrazinyl)-2′-hydroxybiphenyl-3-carboxylic acid]
survival after lethal total body irradiation, heterozygous Mpl^hmMPL knock-in mice ([1]; heterozygous vs wild type): survived longer than the wild type
survival after lethal total body irradiation, homozygous Mpl^hmMPL knock-in mice ([1]; homozygous vs heterozygous): survived longer than the heterozygous transgenic mice
bone marrow Lin-KSL (stem) cells ([2]; Mpl^hExon10 KI mice): significantly increased
bone marrow CD41+CD42+ cells ([2]; homozygous Mpl^hExon10 KI mice, day 16): significantly increased
platelet counts in the peripheral blood ([2]; homozygous Mpl^hExon10 KI mice, day 16, 25 mg/kg/day): significantly increased the platelet counts
survival after TBI, dose dependence ([3]; 25 and 50 mg/kg vs 12.5 mg/kg daily for 15 days): higher doses (25 mg/kg and 50 mg/kg) yielded better survival
survival after TBI [3]: improves survival
survival after TBI ([3]; listed as Eltrombopag): improved the survival of mice
CD41+CD34- cells (precursors/progenitors for thrombopoiesis) [4]: performed as well as TPO
megakaryocytes (number per 1000 bone marrow cells) [4]: performed as well as TPO in promoting megakaryocytes
red blood cell counts ([5]; 2 weeks post IR): an improvement
platelet counts ([5]; 4 and 6 weeks post IR): significant improvement
count of bone marrow precursor/progenitor cells for thrombopoiesis ([5]; 4 weeks post IR): significant improvement
white blood cell counts ([5]; 6 weeks post IR): significant improvement
species-specificity of TPO receptor binding [6]: binds to the TPO receptors of only humans and chimpanzees
